# Values of other authors, collected in patent US7732395B2, “Water-stabilized antimicrobial organosilane products, compositions, and methods for using the same” (Vitec Specialty Chemicals Ltd., priority 2006, dated 2010).
# Conditions: prior art
smiles,measurement,value
CCCCCCCCCCCCCCCCCC[N+](C)(C)CCC[Si](OC)(OC)OC.[Cl-] [3-(trimethoxysilyl)propyl-dimethyloctadecyl ammonium chloride],time after which the mixture with water begins to lose effectiveness,four to eight
